Measurements reported in US20210244712A1, “METHODS FOR TREATING PATIENTS WITH CANCER HAVING DEFECTS IN CYCLIN D REGULATION” (NysnoBio Ireland DAC, priority 2018, published 2021).
Read-outs that look alike come from different tables or passages of the source.

How the values were obtained:
Type in all cases: cell-based
HCT 116 = assay: Cell proliferation assay; details: Homo sapiens, Table 7b, HCT-116, read-out: Cell Proliferation Assay (EC50)
Method: (§1) Measurement of the inhibitive effect of compounds on cancer cell proliferation was performed. The assays were performed under the following conditions: Cells are harvested at a concentration of 4×10^4 cells/ml in media. Volumes of 100 μL/well of these cell suspensions were added to a 96 well plate using a multichannel pipette. Plates were gently agitated to ensure an even dispersion of cells over a given plate. Cells were then incubated at 37° C., 5% CO2 overnight. Following this, 100 μL of compound at varying concentrations was added to wells in triplicate. Control wells are those with 100 μL media containing 0.33% DMSO added to cell suspension (this is the equivalent volume of DMSO found in the highest concentration of drug). Plates were then gently agitated, as above, and incubated at 37° C., 5% CO2 for 72 hrs (control wells have reached 80-90% confluency). Assessment of cell proliferation in the presence of Compounds C and F was determined by the acid phosphatase assay.
(§2) Following the incubation period of 72 hrs, media was removed from the plates. Each well on the plate was washed twice with 100 μL PBS. This was then removed and 100 μL of freshly prepared phosphatase substrate (10 mM p-nitrophenol phosphate in 0.1M sodium acetate, 0.1% triton X-100, pH 5.5) was added to each well. The plates were then incubated in the dark at 37° C. for 2 hours. Color development was monitored during this time. The enzymatic reaction was stopped by the addition of 50 μL of 1N NaOH. The plate was read in a dual beam plate reader at 405 nm with a reference wavelength of 620 nm. The absorbance reading of the latter is subtracted from the former, and the effect of the drug on cell proliferation was then measured as a percentage against the control cells (DMSO), which is taken as 0% inhibition.

TOV-112D = assay: Cell proliferation assay; details: Homo sapiens, TOV112D, Table 7b, TOV-112D, read-out: Cell Proliferation Assay (EC50)
Method: as §1, §2

cyclin D1 = assay: Western blot of Cyclin D1, Example 6B; details: 250 nM, 24 h, compared to control (DMSO)
Method: Cells were plated at a density of 3×10^5 cells/well for 24 hrs. Representative compounds or DMSO alone was then added to the wells for 24 h at 250 nM (note: Compound F was administered at a concentration of 2 μM). Cells were trypsinised, pelleted, washed ×3 in PBS, and lysed using a 2% SDS lysis solution (Sigma—05030).
Western blot analysis was then carried out to look at Cyclin D1 (Abeam—ab134175), PRK8 (Sigma—P6248), Rb (Abeam—[…]) and GAPDH (Sigma—G9545) levels.

Row | Structure (SMILES) | EC50 (HCT 116; cells printed in nM) [nM] | EC50 (TOV-112D; cells printed in nM) [nM] | EC50 (HCT 116; cells printed in μM) [nM] | EC50 (TOV-112D; cells printed in μM) [nM] | Cyclin D1 expression (cyclin D1; HCT-116) | Cyclin D1 expression (cyclin D1; TOV-112)
1 | Cc1ccccc1C(=O)Nc1nc(NC(=O)c2ccc(CN)cc2)nn1-c1ccc(OC(F)(F)F)cc1 [Compound 1x, N-(3-(4-(aminomethyl)benzamido)-1-(4-(trifluoromethoxy)phenyl)-1H-1,2,4-triazol-5-yl)-2-methylbenzamide] | 972 | 350 | – | – | – | –
2 | Cc1ccccc1C(=O)Nc1nc(NC(=O)c2ccc(CN)cc2)n(-c2ccc(OC(F)(F)F)cc2)n1 [Compound 2x] | – | – | 3000 | 4000 | – | –
3 | CCCCCCC(=O)NCc1ccc(C(=O)Nc2nc(-c3ncccc3C)nn2-c2ccc(OC(F)(F)F)cc2)cc1 [Compound 3x, 4-(heptanamidomethyl)-N-(3-(3-methylpyridin-2-yl)-1-(4-(trifluoromethoxy)phenyl)-1H-1,2,4-triazol-5-yl)benzamide] | 484 | 349 | – | – | – | –
4 | CCCCCCC(=O)NCc1ccc(C(=O)Nc2nc(-c3ncccc3C)nn2-c2cccc(F)c2)cc1 [Compound 4x, N-(1-(3-fluorophenyl)-3-(3-methylpyridin-2-yl)-1H-1,2,4-triazol-5-yl)-4-(heptanamidomethyl)benzamide] | 295 | 227 | – | – | – | –
5 | Cc1cccnc1-c1nc(NC(=O)c2ccc(CN)cc2)n(-c2ccc(OC(F)(F)F)cc2)n1 [Compound 5x, 4-(aminomethyl)-N-(3-(3-methylpyridin-2-yl)-1-(4-(trifluoromethoxy)phenyl)-1H-1,2,4-triazol-5-yl)benzamide] | 133 | 114 | – | – | reduction of Cyclin D1 expression | reduction of Cyclin D1 expression
6 | Cc1cccnc1-c1nc(NC(=O)c2ccc(CN)cc2)n(-c2cccc(F)c2)n1 [Compound 6x, 4-(aminomethyl)-N-(1-(3-fluorophenyl)-3-(3-methylpyridin-2-yl)-1H-1,2,4-triazol-5-yl)benzamide] | – | – | 2000 | 2000 | reduction of Cyclin D1 expression | reduction of Cyclin D1 expression
7 | Cc1ccccc1C(=O)Nc1nc(-c2ccccc2O)nn1-c1ccc(N2CCNCC2)cc1 [Compound 7x, N-(3-(2-hydroxyphenyl)-1-(4-(piperazin-1-yl)phenyl)-1H-1,2,4-triazol-5-yl)-2-methylbenzamide] | 406 | 285 | – | – | reduction of Cyclin D1 expression | reduction of Cyclin D1 expression
8 | CCCCCCC(=O)N1CCN(c2ccc(-n3nc(-c4ccccc4O)nc3NC(=O)c3ccccc3C)cc2)CC1 [Compound 8x, N-(1-(4-(4-heptanoylpiperazin-1-yl)phenyl)-3-(2-hydroxyphenyl)-1H-1,2,4-triazol-5-yl)-2-methylbenzamide] | 246 | 124 | – | – | – | –
9 | CCCCCCC(=O)NCc1ccc(C(=O)Nc2nc(-c3ccccc3O)nn2-c2ccc(OC(F)(F)F)cc2)cc1 [Compound 9x, 4-(heptanamidomethyl)-N-(3-(2-hydroxyphenyl)-1-(4-(trifluoromethoxy)phenyl)-1H-1,2,4-triazol-5-yl)benzamide] | 121 | 82 | – | – | – | –
10 | NCc1ccc(C(=O)Nc2nc(-c3ccccc3O)nn2-c2ccc(OC(F)(F)F)cc2)cc1 [Compound 10x, 4-(aminomethyl)-N-(3-(2-hydroxyphenyl)-1-(4-(trifluoromethoxy)phenyl)-1H-1,2,4-triazol-5-yl)benzamide] | 108 | 71 | – | – | reduction of Cyclin D1 expression | reduction of Cyclin D1 expression
11 | Cc1ccccc1C(=O)Nc1nc(NC(=O)c2cccc(CN3CCOCC3)c2)nn1-c1ccc(OC(F)(F)F)cc1 [Compound 11x, 2-methyl-N-(3-(3-(morpholinomethyl)benzamido)-1-(4-(trifluoromethoxy)phenyl)-1H-1,2,4-triazol-5-yl)benzamide] | 929 | 774 | – | – | reduction of Cyclin D1 expression | reduction of Cyclin D1 expression
12 | Cc1ccccc1C(=O)Nc1nc(NC(=O)c2ccc(CNC(C)C)cc2)nn1-c1ccc(OC(F)(F)F)cc1 [Compound 12x, N-(3-(4-((isopropylamino)methyl)benzamido)-1-(4-(trifluoromethoxy)phenyl)-1H-1,2,4-triazol-5-yl)-2-methylbenzamide] | 755 | 183 | – | – | – | –
13 | Cc1ccccc1C(=O)Nc1nc(NC(=O)c2cccc(CNC(C)C)c2)nn1-c1ccc(OC(F)(F)F)cc1 [Compound 13x, N-(3-(3-((isopropylamino)methyl)benzamido)-1-(4-(trifluoromethoxy)phenyl)-1H-1,2,4-triazol-5-yl)-2-methylbenzamide] | 426 | 231 | – | – | reduction of Cyclin D1 expression | reduction of Cyclin D1 expression
14 | Cc1ccccc1C(=O)Nc1nc(NC(=O)c2ccc(CN3CCN(C)CC3)cc2)nn1-c1ccc(OC(F)(F)F)cc1 [Compound 14x, 2-methyl-N-(3-(4-((4-methylpiperazin-1-yl)methyl)benzamido)-1-(4-(trifluoromethoxy)phenyl)-1H-1,2,4-triazol-5-yl)benzamide] | 412 | 655 | – | – | reduction of Cyclin D1 expression | reduction of Cyclin D1 expression
15 | Cc1ccccc1C(=O)Nc1nc(NC(=O)c2cccc(CN3CCN(C)CC3)c2)nn1-c1ccc(OC(F)(F)F)cc1 [Compound 15x, 2-methyl-N-(3-(3-((4-methylpiperazin-1-yl)methyl)benzamido)-1-(4-(trifluoromethoxy)phenyl)-1H-1,2,4-triazol-5-yl)benzamide] | – | – | 1000 | 3000 | – | –
16 | Cc1ccccc1C(=O)Nc1nc(NC(=O)c2ccc(CNC(=O)[C@@H]3CCCN3)cc2)nn1-c1ccc(OC(F)(F)F)cc1 [Compound 16x, (S)—N-(4-((5-(2-methylbenzamido)-1-(4-(trifluoromethoxy)phenyl)-1H-1,2,4-triazol-3-yl)carbamoyl)benzyl)pyrrolidine-2-carboxamide] | 412 | 659 | – | – | – | –
